We go through seven compounds from patent publication US20230011168A1, “Bio-Chips and Production Method Thereof” (China Medical University, priority 2021, published 2023).

Holding throughout (type): cell-based
The subject of one series is lung cancer cells. Briefly: Cytotoxicity test on lung cancer cells in biochip, static vs dynamic perfusion. An excerpt:
With reference to FIGS. 12A and 12B, cytotoxicity tests with 5-Fu cancer cell therapeutic drug are presented.

The test system of another series is breast cancer cells. Description: Cell viability of breast cancer cells in biochip. The following applies: for live cancer cells (cell viability, FIG. 14): after culturing for 3 days, high concentrations. An excerpt:
FIG. 14 is a validation test of cell viability of breast cancer cells treating by couples of cancer therapeutic drugs. […] By such, the present invention can be used to determine which cancer treatment drugs are effective for the patient.
FIG. 15 is an immunohistochemistry corresponded to the test result of Taxol drug in FIG. 14.

The subject of another series is GR10 lung cancer cells. Description: Cancer cell survival test of target drugs, GR10.
In series [1] the test system is SiHa cervical cancer cells. Description: Biochip drug efficacy test on SiHa cervical cancer cells. To be noted: compared with 5-Fu and Lipodox. An excerpt:
(§1) The biochip 10 can be first served as a simulation model of a drug screening for cancer. This embodiment is an example of a drug screening for candidate drugs for cervical cancer taking from a target patient. It is worth mentioning that the biochip 10 provided by the present invention, the simulated vascular channel 12 in the preferred embodiment can be used for simulating an in-vivo environment of cervical cancer or breast cancer which these cancer cells are normally metabolized from the blood vessel in real human body. However, by switching the simulated vascular channel 12 into a gas or air flow channel (simulation of human trachea), it can be used as a simulation for lung cancer as another suitable applications for the present invention.
(§2) In this embodiment, when producing the simulated vascular channel 12, the fluid containing endothelial cells will be fluxed for completely adhering, attaching and even starting to be cultured to the inner surface of the simulated vascular channel 12 at 37° C. for one day. Further, the peristaltic pump is connected to circulate as a biosystem. For a single simulated vascular channel 12, it is preferred to have a perfusion rate as 13 μL/min. […]
(§3) With reference to FIGS. 8A to 8C, in this embodiment, three different cervical cancer cells are used to perform quantitative and qualitative tests of the efficacy of different cancer therapeutic drugs.

The test system of series [2] is Hela cervical cancer cells. Description: Biochip drug efficacy test on Hela cervical cancer cells.
From the text: as §1, §2
With reference to FIGS. 8A to 8C, in this embodiment, three different cervical cancer cells are used to perform quantitative and qualitative tests of the efficacy of different cancer therapeutic drugs. […]

Series [3] deals with CCC cervical cancer cells. Description: Biochip drug efficacy test on CCC cervical cancer cells. The following applies: compared with 5-Fu and Lipodox.
From the text: as §1, §2, §3

Molecules are shown by their SMILES.

Turning to `O=c1[nH]cc(F)c(=O)[nH]1` [5-Fu], the “cytotoxicity (FIG. 12A)” value in the series with lung cancer cells (dynamic perfusion compared with static culture) was “cytotoxicity of dynamic perfusion is more remarkable”. In addition, in the series on lung cancer cells (high dose, dynamic culture of perfusion), the “dead cancer cells (immunohistochemistry, FIG. 12B)” value was “dead cancer cells are increased”.

For `N.N.[Cl][Pt][Cl]` [Cisplatin], in the series on breast cancer cells, the “live cancer cells (cell viability, FIG. 14)” value (from here on “live cancer cells”) is given as “significantly reducing live cancer cells”.

As for `C#Cc1cccc(Nc2ncnc3cc(OCCOC)c(OCCOC)cc23)c1` [Erlotinib], the “effect on cancer cell survival (FIG. 13B)” value in the series with GR10 lung cancer cells was “drug resistance”.

For the compound `COc1cc2ncnc(Nc3ccc(F)c(Cl)c3)c2cc1OCCCN1CCOCC1` [Gefitinib], in the series on GR10 lung cancer cells, the “effect on cancer cell survival (FIG. 13B)” value is recorded as “drug resistance”.

Take `Nc1ccn([C@@H]2O[C@H](CO)[C@@H](O)C2(F)F)c(=O)n1` [Gemcitabine]: the “live cancer cells” value in the series on breast cancer cells was “significantly reducing live cancer cells”.

On to `Nc1nc2[nH]cc(CCc3ccc(C(=O)N[C@@H](CCC(=O)O)C(=O)O)cc3)c2c(=O)[nH]1` [Pemetrexed], for which the “reaction compared with the other drugs (FIG. 14)” value with breast cancer cells (Taxol, Cisplatin, Gemcitabine vs Pemetrexed) was “These three drugs show better reaction than Pemetrexed”.

As for `CC(=O)O[C@H]1C(=O)[C@@]2(C)[C@H]([C@H](OC(=O)c3ccccc3)[C@]3(O)C[C@H](OC(=O)[C@H](O)[C@@H](NC(=O)c4ccccc4)c4ccccc4)C(C)=C1C3(C)C)[C@]1(OC(C)=O)CO[C@@H]1C[C@@H]2O` [Taxol], in the series on breast cancer cells, the “dead cancer cells (immunohistochemistry, FIG. 15)” value is “more and more dead cancer cells are shown”; the “live cancer cells” value is recorded as “significantly reducing live cancer cells”. In addition, the “cancer cell poisoning effect (bar diagrams, FIG. 8B)” value in series [1] was “better cancer cell poisoning effect among other two drugs”. Further, in series [2] (7th day), the “cancer cell killing effect (immunohistochemistry, apoptotic cells)” value was “significant cancer cell killing effect”. Further, the “cancer cell poisoning effect (bar diagrams, FIG. 8A)” value in series [2] (compared with 5-Fu and Lipodox) was “better cancer cell poisoning effect among other two drugs”. Further, the “cancer cell poisoning effect (bar diagrams, FIG. 8C)” value in series [3] was “better cancer cell poisoning effect among other two drugs”.
